# Patent publication US20130204033A1, “ANTIPROLIFERATIVE COMPOUNDS, CONJUGATES THEREOF, METHODS THEREFOR, AND USES THEREOF” (Medarex, Inc., priority 2009, published 2013)
# Where two headings read alike, the source gives them in different places.
# Experiments:
# Type in all cases: cell-based, human
# U-87 MG [1] = experiment: ATP luminescence proliferation assay, U-87 MG; settings: Homo sapiens
# Method: (§1) This example generally describes the procedures used to assay the antiproliferative activity of compounds of this invention or their conjugates. Human tumor cell lines were obtained from the American Type Culture Collection (ATCC), P.O. Box 1549, Manassas, Va. 20108, USA, and cultured according to instruction from the ATCC. Cells were seeded at 1.0×10^3 or 1.0×10^4 cells/well in 96-well plates for 3 h for ATP assays or ^3H thymidine assays, respectively. 1:3 serial dilutions of free (unconjugated) compounds or their conjugates were added to the wells. Plates were allowed to incubate for 24 to 72 h. The ^3H thymidine plates were pulsed with 1.0 μCi of ^3H-thymidine per well for the last 24 hours of the total incubation period, harvested, and read on a Top Count Scintillation Counter (Packard Instruments, Meriden, Conn.). ATP levels in the ATP plates were measured using the […]-GLO® Luminescent Cell Viability kit following the manufacturer's manual and read on a GLOMAX® 20/20 luminometer (both from Promega, Madison, Wis., USA). The EC50 values—the concentration at which an agent inhibits or reduces cell proliferation by 50% —were determined using PRISM™ software, version 4.0 (GraphPad Software, La Jolla, Calif., USA).
# (§2) Using the ^3H thymidine or the ATP luminescence assay, or both, the activities of compounds of this invention were assayed against the following cancer cell lines: HCT-15 (colorectal cancer, multi-drug resistant (MDR)); Hep3B (liver cancer); LNCaP (prostate cancer, androgen receptor positive (AR^+)); MDA-MB-231 (breast cancer, estrogen receptor, progesterone receptor, and Her2 negative (triple negative)); A2058 (melanoma); U-87 MG (glioblastoma); NCI-H460 (NSCLC); A549 (NSCLC); HPAC (pancreatic cancer, primary); PC3 (prostate cancer, AR); BT474 (breast cancer, Her2 highly positive (Her2hi)); SKOV3 (ovarian cancer, Her2hi); 786-O (renal cancer); UO-31 (renal cancer, MDR); NCI-H740 (SCLC); DMS53 (SCLC); SK-BR3 (breast cancer, Her2hi); ZR-75 (breast cancer, estrogen receptor positive); OVCAR3 (ovarian cancer); HL-60 (APL); OVCAR8/Adr (ovarian cancer, MDR); CEM-Cl (ALL); Nomo-1 (AML); RPMI-8226 (MM)); Raji (lymphoma); SW-480 (colorectal cancer, metastatic); SW-620 (colorectal cancer); and H226 (lung cancer). (Not all compounds were assayed against all cell lines.)
# (§3) Table 3 provides the data for the ATP luminescence proliferation assays, with an incubation period of 48, 72, or 96 h, as noted.
# UO-31 [2] = experiment: ATP luminescence proliferation assay, UO-31; settings: Homo sapiens
# Method: as §1, §2, §3
# CEM-C1 = experiment: 3H thymidine proliferation assay, CEM-C1; settings: Homo sapiens
# Method: as §1, §2
# (§4) Table 2 provides the data for proliferation assays using the ^3H thymidine method, with an incubation period of 72 h.
# UO-31 [3] = experiment: 3H thymidine proliferation assay, UO-31; settings: Homo sapiens
# Method: as §1, §2, §4
# PC3 = experiment: ATP luminescence proliferation assay, PC3; settings: Homo sapiens
# Method: as §1, §2, §3
# HL-60 [4] = experiment: ATP luminescence proliferation assay, HL-60; settings: Homo sapiens
# Procedure, shortened: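 Cells seeded at 1.0×10^3 cells/well for 3 h, then exposed to 1:3 serial dilutions of free compounds or conjugates for 48, 72 or 96 h, as noted. ATP measured by luminescent cell viability kit; EC50 taken as concentration reducing proliferation by 50%.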
# BT474 = experiment: ATP luminescence proliferation assay, BT474; settings: Homo sapiens
# Method: as §1, §2, §3
# LNCaP = experiment: 3H thymidine proliferation assay, LNCaP; settings: Homo sapiens, LNCaP
# Method: as §1, §2, §4
# HL-60 [5] = experiment: 3H thymidine proliferation assay, HL-60; settings: Homo sapiens
# Method: as §1, §2, §4
# ZR-75 = experiment: 3H thymidine proliferation assay, ZR-75; settings: Homo sapiens
# Method: as §1, §2, §4
# Nomo-1 = experiment: 3H thymidine proliferation assay, Nomo-1; settings: Homo sapiens
# Method: as §1, §2, §4
# CEM-Cl = experiment: ATP luminescence proliferation assay, CEM-C1; settings: Homo sapiens
# Method: as §1, §2, §3
# SW-480 = experiment: ATP luminescence proliferation assay, SW-480; settings: Homo sapiens
# Method: as §1, §2, §3
# SKOV3 = experiment: ATP luminescence proliferation assay, SKOV3; settings: Homo sapiens
# Method: as §1, §2, §3
# U-87 MG [6] = experiment: 3H thymidine proliferation assay, U-87 MG; settings: Homo sapiens, U-87 MG
# Method: as §1, §2, §4
# Hep3B = experiment: 3H thymidine proliferation assay, Hep3B; settings: Homo sapiens, Hep3B
# Method: as §1, §2, §4
# DMS53 = experiment: 3H thymidine proliferation assay, DMS53; settings: Homo sapiens
# Method: as §1, §2, §4
# H740 = experiment: 3H thymidine proliferation assay, H740; settings: Homo sapiens
# Method: as §1, §2, §4
smiles,measurement,setting,value
"Nc1ccc(C(=O)Nc2ccc3[nH]c(C(=O)N4C[C@@H](CCl)c5c4cc(O)c4ccccc54)cc3c2)cc1 [CBI, reference compound]",EC50,"U-87 MG [1]; ATP luminescence, 72 h incubation, read-out: EC50 U-87 MG (72 h)",3.3 nM
same,EC50,"UO-31 [2]; ATP luminescence, UO-31, 48 h incubation, read-out: EC50 UO-31 (48 h)",4.2 nM
same,EC50,"CEM-C1; CEM/C1, 3H thymidine method, 72 h incubation, read-out: EC50, CEM-C1",0.11 nM
same,EC50,"UO-31 [3]; UO-31, 3H thymidine method, 72 h incubation, read-out: EC50, UO-31",0.035 nM
same,EC50,"PC3; PC-3, ATP luminescence, PC3, 48 h incubation, read-out: EC50 PC3 (48 h)",12 nM
same,EC50,"HL-60 [4]; ATP luminescence, HL-60, 72 h incubation, read-out: EC50 HL-60 (72 h)",0.76 nM
same,EC50,"BT474; BT-474, ATP luminescence, BT474, 72 h incubation, read-out: EC50 BT474 (72 h)",5.5 nM
same,EC50,"LNCaP; 3H thymidine method, 72 h incubation, read-out: EC50, LNCaP",0.051 nM
same,EC50,"HL-60 [5]; HL-60, 3H thymidine method, 72 h incubation, read-out: EC50, HL-60",0.027 nM
same,EC50,"ZR-75; ZR75, 3H thymidine method, 72 h incubation, read-out: EC50, ZR-75",1.5 nM
same,EC50,"Nomo-1; NOMO-1, 3H thymidine method, 72 h incubation, read-out: EC50, Nomo-1",0.016 nM
same,EC50,"CEM-Cl; ATP luminescence, CEM-C1, 72 h incubation, read-out: EC50 CEM-C1 (72 h)",0.55 nM
same,EC50,"SW-480; ATP luminescence, SW480, 96 h incubation, read-out: EC50 SW480 (96 h)",0.92 nM
same,EC50,"SKOV3; SK-OV-3, ATP luminescence, SKOV3, 48 h incubation, read-out: EC50 SKOV3 (48 h)",3 nM
same,EC50,"U-87 MG [6]; 3H thymidine method, 72 h incubation, read-out: EC50, U-87 MG",0.14 nM
same,EC50,"Hep3B; 3H thymidine method, 72 h incubation, read-out: EC50, Hep3B",0.02 nM
same,EC50,"DMS53; DMS-53, 3H thymidine method, 72 h incubation, read-out: EC50, DMS53",1.5 nM
same,EC50,"H740; 3H thymidine method, 72 h incubation, read-out: EC50, H740",0.098 nM
CCCC(NC(=O)c1csc([C@@H](C[C@H](C(C)C)N(C)C(=O)[C@@H](NC(=O)[C@H]2CCCCN2C)[C@@H](C)CC)OC)n1)C(=O)OC (stereo partly drawn) [Compound 17],EC50,"U-87 MG [1]; 72 h, read-out: EC50 U-87 MG (72 h), ATP luminescence, U-87 MG, 72 h incubation",22 nM
same,EC50,"UO-31 [2]; UO-31, 48 h, read-out: EC50 UO-31 (48 h), ATP luminescence, UO-31, 48 h incubation",> 100 nM
same,EC50,"CEM-C1; CEM/C1, read-out: EC50, CEM-C1, 3H thymidine method, 72 h incubation",43 nM
same,EC50,"UO-31 [3]; UO-31, read-out: EC50, UO-31, 3H thymidine method, 72 h incubation",> 100 nM
same,EC50,"PC3; PC-3, 48 h, read-out: EC50 PC3 (48 h), ATP luminescence, PC3, 48 h incubation",> 100 nM
same,EC50,"HL-60 [4]; HL-60, 72 h, read-out: EC50 HL-60 (72 h), ATP luminescence, HL-60, 72 h incubation",7.4 nM
same,EC50,"BT474; BT-474, 48 h, read-out: EC50 BT474 (48 h), ATP luminescence, BT474, 48 h incubation",23 nM
same,EC50,"LNCaP; read-out: EC50, LNCaP, 3H thymidine method, 72 h incubation",> 100 nM
same,EC50,"HL-60 [5]; HL-60, read-out: EC50, HL-60, 3H thymidine method, 72 h incubation",17 nM
same,EC50,"ZR-75; ZR75, read-out: EC50, ZR-75, 3H thymidine method, 72 h incubation",> 100 nM
same,EC50,"Nomo-1; NOMO-1, read-out: EC50, Nomo-1, 3H thymidine method, 72 h incubation",6.8 nM
same,EC50,"CEM-Cl; CEM/C1, 72 h, read-out: EC50 CEM-C1 (72 h), ATP luminescence, CEM-C1, 72 h incubation",26 nM
same,EC50,"SW-480; SW480, 96 h, read-out: EC50 SW480 (96 h), ATP luminescence, SW480, 96 h incubation",92 nM
same,EC50,"SKOV3; SK-OV-3, 48 h, read-out: EC50 SKOV3 (48 h), ATP luminescence, SKOV3, 48 h incubation",58 nM
same,EC50,"U-87 MG [6]; read-out: EC50, U-87 MG, 3H thymidine method, 72 h incubation",12 nM
same,EC50,"Hep3B; read-out: EC50, Hep3B, 3H thymidine method, 72 h incubation",> 100 nM
same,EC50,"DMS53; DMS-53, read-out: EC50, DMS53, 3H thymidine method, 72 h incubation",> 100 nM
same,EC50,"H740; read-out: EC50, H740, 3H thymidine method, 72 h incubation",32 nM
